Laboratory results reported in patent publication US20220380402A1, “6-HYDRAZINOADENOSINE COMPOUNDS WITH A2A ADENOSINE RECEPTOR AGONIST ACTIVITY” (ACADEMY OF MILITARY MEDICAL SCIENCES, priority 2019, published 2022).

How the values were obtained:
A2A adenosine receptor = target: T1, A2A adenosine receptor (Homo sapiens, UniProt P29274); test: Radioligand binding test ([3H]CGS21680 displacement, hA2A HEK-293 cell membrane); conditions: calculated from IC50 by Cheng and Prusoff equation; [3H]CGS21680 25 nM, Km 22 nM; 25° C., 90 minutes
T1 construct: purchased PerkinElmer Research Products (Boston, Mass.); host or cells: HEK-293 cells, stably transfected; membrane preparation
T1 sequence (P29274 whole entry): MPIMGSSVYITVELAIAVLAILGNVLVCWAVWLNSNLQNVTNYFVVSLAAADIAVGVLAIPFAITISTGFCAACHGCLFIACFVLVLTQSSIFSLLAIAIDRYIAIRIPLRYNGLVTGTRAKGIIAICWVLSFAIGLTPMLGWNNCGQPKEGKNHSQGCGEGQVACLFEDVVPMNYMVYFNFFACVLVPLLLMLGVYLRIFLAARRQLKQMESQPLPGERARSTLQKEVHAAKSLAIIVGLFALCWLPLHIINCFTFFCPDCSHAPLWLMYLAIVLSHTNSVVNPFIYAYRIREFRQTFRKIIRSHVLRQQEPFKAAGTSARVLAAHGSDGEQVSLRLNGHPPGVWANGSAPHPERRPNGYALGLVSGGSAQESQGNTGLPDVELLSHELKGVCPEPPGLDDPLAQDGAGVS
Experimental: [3H]CGS21680 (2-[p-(2-carboxyethyl)phenylethylamino]-5′-N-ethylformamidoadenosine, [carboxy-1-ethyl-3H(N)]; 250 μCi) was purchased from PerkinElmer Research Products (Boston, Mass.).
Cell membrane stably transfected with (human) A2A adenosine receptor was prepared in HEK-293 cells. The cell membrane was obtained from PerkinElmer Research Products (Boston, Mass.).
CGS21680 (2-[p-(2-carboxyethyl)phenylethylamino]-5′-N-ethylformamidoadenosine) was purchased from Selleck (Shanghai, CN).
The A2A adenosine receptors used were all expressed in the cell membrane. […] The specific binding percentage of [3H]CGS21680 was calculated according to the CPM value, % specific binding of [3H]CGS21680=(CPMsample−CPMLow Control)/(CPMHigh Control−CPMLow Control)*100, in which
High Control was 0.5% DMSO, Low Control was 100 μM CGS21680. The IC50 value was calculated based on the compound concentration and the specific binding percentage of [3H]CGS21680 by curve fitting.
The inhibition constant (Ki) value was calculated from the IC50 value according to the Cheng and Prusoff equation, Ki=IC50/(1+[S]/Km), in which [S] was the concentration of the radioligand (25 nM), and Km was the human A2AAR dissociation constant (22 nM) of [3H]CGS21680. The inhibition constant Ki values for Compounds 1 to 20 of the present invention binding to A2A adenosine receptor were shown in Table 1.

[1] = target: human adenosine receptor A2A (Homo sapiens, UniProt P29274); test: Adenosine receptor A2A cAMP test (LANCE Ultra cAMP, hADORA2A-HEK293 cells); assay type: cell-based
Chain of human adenosine receptor A2A (P29274 whole entry): as above
From the text: Experimental reagents and consumables: DMEM/F12, G418, Penicillin-Streptomycin, Versene Solution, HEPES, Hank's Buffered Saline Solution, PBS (pH 7.4, 1×, sterile), FBS, BSA Stabilizer 7.5%, Rolipram, NECA, were purchased from Gibico, Hyclone and Sigma, respectively. LANCE® Ultra cAMP kit (Eu-cAMP tracer, Ulight-anti-cAMP reagent, cAMP detection buffer) and hADORA2A-HEK293 cells were purchased from PerkinElmer Research Products (Boston, Mass.). All other reagents were of analytical grade and obtained from commercial sources. 384-well polypropylene microplate and 384-well white solid plate were purchased from Labcyte and Corning, respectively.
Cells stably expressing human adenosine receptor A2A (hADORA2A-HEK293 cells) were cultured in DMEM/F12 medium containing 10% FBS, 1× Penicillin-Streptomycin and 400 μg/ml G418 in a 37° C., 5% CO2 environment. Before the experiment, the cells were digested with Versene solution, and the cells were collected by centrifugation at 200 g at room temperature for 5 minutes, and finally resuspended with detection buffer (Hank's buffered saline solution, containing 5 mM HEPES, 0.1% BSA stabilizer and 10 μM Rolipram, pH 7.4). TECAN automated pipetting workstation was used to prepare a compound source plate by 3-fold diluting the compound in a 384-well polypropylene microplate with DMSO to form 11 concentration points, in which the 11 concentration points of the compound were 10 mM, 3.33 mM, 1.11 mM, 0.37 mM, 0.12 mM, 0.041 mM, 0.013 mM, 4.57×10^−3 mM, 1.52×10^−3 mM, 5×10^−4 mM and 1.7×10^−4 mM, respectively. Echo ultrasonic pipetting system (Labcyte) was used to transfer the test compound from the compound source plate to the detection plate, in which the volume of the compound transferred was 10 nl/well. The hADORA2A-HEK293 cell suspension was diluted with detection buffer to 30,000 cells/ml, and the cell suspension was transferred to the detection plate at a volume of 10 μl/well (300 cells/well). The detection plate was centrifuged at 150 g for 1 minute and pre-incubated at room temperature for 30 minutes. […] EnVison microplate reader (EnVision multimode plate reader, PerkinElmer) was used to test the level of cyclic adenosine monophosphate in the final solution (λex=320 nm, λem=665 nm & 615 nm). The EC50 (nM) value of the compound interacting with A2A adenosine receptor to stimulate the production of a level of cyclic adenosine monophosphate was calculated. The compound A2A receptor agonist titer was expressed as the EC50 (nM) value of the compound interacting with the A2A adenosine receptor to stimulate the production of a level of cyclic adenosine monophosphate.

OC[C@H]1O[C@@H](n2cnc3c(N/N=C/C4CCCCC4)ncnc32)[C@H](O)[C@@H]1O [Compound 22, (2R,3R,4S,5R)-2-{6-{2-[(E)-cyclohexylmethylene]hydrazino}-9H-purin-9-yl}-5-(hydroxylmethyl)tetrahydrofuran-3,4diol]
Ki (A2A adenosine receptor): 86.6 nM | melting point: 132 °C

OC[C@H]1O[C@@H](n2cnc3c(N/N=C/c4ccc(OCc5ccccc5)c(OCc5ccccc5)c4)ncnc32)C(O)C1O (stereo partly shown) [Compound 4]
Ki (A2A adenosine receptor): > 10000 nM | melting point: 186 °C

CCCCC/C=C/C=C/C=N/Nc1ncnc2c1ncn2[C@@H]1O[C@H](CO)[C@@H](O)[C@H]1O [Compound 21, (2R,3R,4S,5R)-2-{6-{2-[(1E,2E,4E)-deca-2,4-dien-1-ylidene]hydrazino}-9H-purin-9-yl}-5(hydroxymethyl)tetrahydrofuran-3,4-diol]
Ki (A2A adenosine receptor): 1.2 nM | melting point: 178 °C

CN(C)c1ccc(/C=C/C=N/Nc2ncnc3c2ncn3[C@@H]2O[C@H](CO)[C@@H](O)[C@H]2O)cc1 [Compound 17, (2R,3R,4S,5R)-2-{6-{2-{(1E,2E)-3-[4-(dimethylamino)phenyl]allylidene}hydrazino}-9H-purin-9-yl}-5-(hydroxymethyl)tetrahydrofuran-3,4-diol]
Ki (A2A adenosine receptor): 1.4 nM | melting point: 172 °C

OC[C@H]1O[C@@H](n2cnc3c(N/N=C/c4ccc(-c5ccccc5)cc4)ncnc32)C(O)C1O (stereo partly shown) [Compound 10]
Ki (A2A adenosine receptor): 1900 nM | melting point: 170 °C

OC[C@H]1O[C@@H](n2cnc3c(N/N=C/c4ccc(C(F)(F)F)cc4)ncnc32)[C@H](O)[C@@H]1O [Compound 14, (2R,3S,4R,5R)-2-(hydroxymethyl)-5-{6-{2-[(E)-4-(trifluoromethyl)benzylidene]hydrazino}-9H-purin-9-yl}tetrahydrofuran-3,4-diol]
Ki (A2A adenosine receptor): 520 nM | melting point: 182 °C

OC[C@H]1O[C@@H](n2cnc3c(N/N=C/c4ccc(N5CCCC5)cc4)ncnc32)[C@H](O)[C@@H]1O [Compound 11, (2R,3S,4R,5R)-2-(hydroxymethyl)-5-{6-{2-[(E)-4-(pyrrolidin-1-yl)benzylidene]hydrazino}-9H-purin-9-yl}tetrahydrofuran-3,4-diol]
Ki (A2A adenosine receptor): 2 nM | melting point: 202 °C

OC[C@H]1O[C@@H](n2cnc3c(N/N=C/c4ccc[nH]4)ncnc32)[C@H](O)[C@@H]1O [Compound 1, (2R,3R,4S,5R)-2-{6-{2-[(E)-(1H-pyrrol-2-yl)methylene]hydrazino}-9H-purin-9-yl}-5-(hydroxymethyl)tetrahydrofuran-3,4-diol]
Ki (A2A adenosine receptor): 945 nM | melting point: 160 °C

OC[C@H]1O[C@@H](n2cnc3c(N/N=C/c4cncs4)ncnc32)[C@H](O)[C@@H]1O [Compound 16, (2R,3S,4R,5R)-2-(hydroxymethyl)-5-{6-{2-[(E)-thiazol-5-yl-methylene]hydrazino}-9H-purin-9-yl}tetrahydrofuran-3,4-diol]
Ki (A2A adenosine receptor): 15.8 nM | hA2AAR agonist function (in words) ([1]; conclusion from cAMP test): hA2AAR agonists | EC50 ([1]; hADORA2A-HEK293 cells, 300 cells/well, stimulation of cyclic adenosine monophosphate): 43.5 nM | melting point: 224 °C

OC[C@H]1O[C@@H](n2cnc3c(N/N=C/c4ccc(C(F)(F)F)cc4C(F)(F)F)ncnc32)[C@H](O)[C@@H]1O [Compound 6, (2R,3R,4S,5R)-2-{6-{2-[(E)-2,4-bis(trifluoromethyl)benzylidene]hydrazino}-9H-purin-9-yl}-5-(hydroxymethyl)tetrahydrofuran-3,4-diol]
Ki (A2A adenosine receptor): 1.2 nM | melting point: 200 °C

OC[C@H]1O[C@@H](n2cnc3c(N/N=C/c4ccc(-c5ccccn5)cc4)ncnc32)[C@H](O)[C@@H]1O [Compound 9, (2R,3S,4R,5R)-2-(hydroxymethyl)-5-{6-{2-[(E)-4-(pyridin-2-yl)benzylidene]hydrazino}-9H-purin-9-yl}tetrahydrofuran-3,4-diol]
Ki (A2A adenosine receptor): 4590 nM | melting point: 236 °C

CC(=O)Nc1ccc(/C=N/Nc2ncnc3c2ncn3[C@@H]2O[C@H](CO)C(O)C2O)cc1 (stereo partly drawn) [Compound 3, N-{4-{(E)-{2-{9-[(2R,3R,4S,5R)-3,4-dihydroxy-5-(hydroxymethyl)tetrahydrofuran-2-yl]-9H-purin-6-yl}hydrazino}methyl}phenyl}acetamide]
Ki (A2A adenosine receptor): 3.6 nM | melting point: 170 °C

CCCOc1ccc(/C=N/Nc2ncnc3c2ncn3[C@@H]2O[C@H](CO)[C@@H](O)[C@H]2O)cc1 [Compound 13, (2R,3S,4R,5R)-2-(hydroxymethyl)-5-{6-{2-[(E)-4-propoxybenzylidene]hydrazino}-9H-purin-9-yl}tetrahydrofuran-3,4-diol]
Ki (A2A adenosine receptor): 4470 nM | melting point: 202 °C

CSCC/C=N/Nc1ncnc2c1ncn2[C@@H]1O[C@H](CO)C(O)C1O (stereo partly drawn) [Compound 2, (2R,3S,4R,5R)-2-(hydroxymethyl)-5-{6-{2-[(E)-3-(methylthio)propylene]hydrazino}-9H-purin-9-yl}tetrahydrofuran-3,4-diol]
Ki (A2A adenosine receptor): 2150 nM | melting point: 94 °C

OC[C@H]1O[C@@H](n2cnc3c(N/N=C/c4cccc(OCc5ccccc5)c4)ncnc32)[C@H](O)[C@@H]1O [Compound 8, (2R,3R,4S,5R)-2-{6-{2-[(E)-3-(benzyloxy)benzylidene]hydrazino}-9H-purin-9-yl}-5-(hydroxymethyl)tetrahydrofuran-3,4-diol]
Ki (A2A adenosine receptor): 236 nM | melting point: 140 °C

OC[C@H]1O[C@@H](n2cnc3c(N/N=C/c4ccc(-n5ccnc5)cc4)ncnc32)[C@H](O)[C@@H]1O [Compound 12, (2R,3R,4S,5R)-2-{6-{2-[(E)-4-(1H-imidazol-1-yl)benzylidene]hydrazino}-9H-purin-9-yl}-5(hydroxymethyl)tetrahydrofuran-3,4-diol]
Ki (A2A adenosine receptor): 15.4 nM | melting point: 222 °C

OC[C@H]1O[C@@H](n2cnc3c(N/N=C/c4ccc(Cl)c(C(F)(F)F)c4)ncnc32)C(O)C1O (stereo partly shown) [Compound 18]
Ki (A2A adenosine receptor): 1470 nM | melting point: 196 °C

OC[C@H]1O[C@@H](n2cnc3c(N/N=C/c4ccc(N(c5ccccc5)c5ccccc5)cc4)ncnc32)C(O)C1O (stereo partly shown) [Compound 19]
Ki (A2A adenosine receptor): 5580 nM | melting point: 160 °C

CCCCc1nc(/C=N/Nc2ncnc3c2ncn3[C@@H]2O[C@H](CO)[C@@H](O)[C@H]2O)c(Cl)[nH]1 [Compound 20, (2R,3R,4S,5R)-2-{6-{2-[(E)-(2-butyl-5-chloro-1H-imidazol-4-yl)methylene]hydrazino}-9H-purin-9-yl}-5-(hydroxymethyl)tetrahydrofuran-3,4-diol]
Ki (A2A adenosine receptor): 998 nM | melting point: 178 °C
